This note sets out measurements from patent publication US20160143913A1, “COMBINATION” (Novartis AG, priority 2009, published 2016).

Holding throughout (type): cell-based
One assay has as its system DLD1. Kind of assay: Cell growth inhibition assay (Cell Titer Glo), DLD1. The conditions noted are these: Homo sapiens, DLD-1, 72 h; DLD1 colon; KRAS_G13D; PIK3CA_E545K; single agent, 3 days, mean ± std. The text has this: (§1) Human breast tumor line, MDA-MB-175-VII, human colon tumor lines, Colo-205, DLD-1, HCT-8, HT-29, LS-1034, NCI-H508, RKO, SW1417, SW1463, SW480, SW837 and T84, and human lung tumor lines, A427, A549, Calu 3, Calu 6, HCC827, NCI-H1155, NCI-H1355, NCI-H1792, NCI-H23, NCI-H727, SW1573 and SW900 were from ATCC. Human breast tumor line EFM-19 was from German Collection of Microorganisms and Cell Cultures. Human lung tumor line COR-L23 was from European Collection of Cell Cultures (UK). Human colon tumor line KM12 and human lung tumor line Hop62 were from National Cancer Institute. MV522 was from University of California at San Diego. All lines were cultured in RPMI 1640 medium containing 10% fetal bovine serum (FBS).
(§2) All cells were cultured for a minimum of 72 hours prior to cell plating. […] ATP levels were determined by adding Cell Titer Glo® (Promega) according to the manufacturer's protocol. Briefly, Cell Titer Glo® was added each plate, incubated for 30 minutes then luminescent signal was read on the SpectraMax L plate reader with a 0.5 sec integration time.
(§3) Inhibition of cell growth was estimated after treatment with compound or combination of compounds for three days and comparing the signal to cells treated with vehicle (DMSO). Cell growth was calculated relative to vehicle (DMSO) treated control wells. […]
(In general: ATP-based viability assays read luminescence as a measure of living cells.)

In another assay the test system is NCI-H23. Description: Cell growth inhibition assay (Cell Titer Glo), NCI-H23. Particulars: Homo sapiens, 72 h; NCI-H23 lung; KRAS_G12C; PIK3CA/PTEN WT; single agent, 3 days, mean ± std.
Description: as §1, §2, §3

The test system of another assay is SW837. Description: Cell growth inhibition assay (Cell Titer Glo), SW837. Particulars: Homo sapiens, 72 h; SW837 colon; KRAS_G12C; PIK3CA/PTEN WT; single agent, 3 days, mean ± std.
Description: as §1, §2, §3

Another assay deals with HT-29. Kind of assay: Cell growth inhibition assay (Cell Titer Glo), HT-29. The conditions noted are these: Homo sapiens, 72 h; HT-29 colon; BRAF_V600E; PIK3CA_P449T; single agent, 3 days, mean ± std.
Description: as §1, §2, §3

A further assay relates to HCT-8. Description: Cell growth inhibition assay (Cell Titer Glo), HCT-8. Particulars: Homo sapiens, 72 h; HCT-8 colon; KRAS_G13D; PIK3CA_E545K; single agent, 3 days, mean ± std.
Description: as §1, §2, §3

A further assay deals with EFM-19. Kind of assay: Cell growth inhibition assay (Cell Titer Glo), EFM-19. The conditions noted are these: Homo sapiens, EFM-19, 72 h, EFM-19 breast; KRAS/RAF WT; PIK3CA_H1049L; single agent, 3 days, mean ± std.
Description: as §1, §2, §3

One may read the IC50 as the concentration needed to halve the response being measured. For `Cn1ncc(Cl)c1-c1cc(C(=O)N[C@H](CN)Cc2cccc(F)c2)sc1Cl` [Compound B, N-{(1S)-2-amino-1-[(3-fluorophenyl)methyl]ethyl}-5-chloro-4-(4-chloro-1-methyl-1H-pyrazol-5-yl)-2-thiophenecarboxamide], the IC50 in the assay on DLD1 is over 10 µM; with NCI-H23, 7.12 ± 3.8 µM; with SW837, over 10 µM.

`CC(=O)Nc1cccc(-n2c(=O)n(C3CC3)c(=O)c3c(Nc4ccc(I)cc4F)n(C)c(=O)c(C)c32)c1` [Compound A, N-{3-[3-cyclopropyl-5-(2-fluoro-4-iodo-phenylamino)-6,8-dimethyl-2,4,7-trioxo-3,4,6,7-tetrahydro-2H-pyrido[4,3-d]pyrimidin-1-yl]phenyl}acetamide]: the concentration for half-maximal inhibition (IC50) in the assay with HT-29 was 0.002 ± 0.001 µM; in the assay on HCT-8, 0.055 ± 0.011 µM; in the assay with EFM-19, over 1 µM.
